ChEMBL document CHEMBL1201862, “PubChem BioAssay data set” (2004)
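Assay format: 96-well plates, 48-hour exposure. GI50 = concentration required for 50% inhibition of growth.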 Activity calls are given as the source filed them. No stated cut-off is given here; in the data, active = GI50 up to about 1.1 µM and inactive = higher.

Assays:
Test in all cases: NCI-60 cell line screen, 48 h
MOLT-4 = test system: MOLT-4
NCI-H522 = test system: NCI-H522
PC-3 = test system: PC-3
OVCAR-3 = test system: OVCAR-3
OVCAR-4 = test system: OVCAR-4
TK-10 = test system: TK-10
A498 = test system: A498
M14 = test system: M14
UO-31 = test system: UO-31
UACC-62 = test system: UACC-62
RPMI-8226 = test system: RPMI-8226
BT-549 = test system: BT-549
HCT-116 = test system: HCT-116
EKVX = test system: EKVX
SR = test system: SR
DU-145 = test system: DU-145
MDA-N = test system: MDA-N
HL-60 = test system: HL-60
UACC-257 = test system: UACC-257
SF-539 = test system: SF-539

O=C1C(c2c(O)[nH]c3ccc(Br)cc23)=Nc2ccc(Br)cc21
GI50 (MOLT-4): 45 µM (inactive)
GI50 (NCI-H522): 83 µM (inactive)
GI50 (PC-3): 51.3 µM (inactive)
GI50 (OVCAR-3): > 100 µM (inactive)
GI50 (OVCAR-4): 53.7 µM (inactive)
GI50 (TK-10): 72.9 µM (inactive)
GI50 (A498): > 100 µM (inactive)
GI50 (M14): 97.9 µM (inactive)
GI50 (UO-31): > 100 µM (inactive)
GI50 (UACC-62): > 100 µM (inactive)
GI50 (RPMI-8226): > 100 µM (inactive)
GI50 (BT-549): 70.6 µM (inactive)
GI50 (HCT-116): 18 µM (inactive)
GI50 (EKVX): 38.1 µM (inactive)
GI50 (SR): 32.1 µM (inactive)
GI50 (DU-145): 25.4 µM (inactive)
GI50 (MDA-N): 31.2 µM (inactive)
GI50 (HL-60): 86.5 µM (inactive)
GI50 (UACC-257): > 100 µM (inactive)

Nc1nc(Cl)nc(NCc2ccccc2)n1
GI50 (MOLT-4): > 100 µM (inactive)
GI50 (PC-3): > 100 µM (inactive)
GI50 (OVCAR-3): > 100 µM (inactive)
GI50 (OVCAR-4): > 100 µM (inactive)
GI50 (TK-10): > 100 µM (inactive)
GI50 (SF-539): > 100 µM (inactive)
GI50 (A498): > 100 µM (inactive)
GI50 (M14): > 100 µM (inactive)
GI50 (UACC-62): > 100 µM (inactive)
GI50 (RPMI-8226): > 100 µM (inactive)
GI50 (BT-549): > 100 µM (inactive)
GI50 (HCT-116): > 100 µM (inactive)
GI50 (EKVX): > 100 µM (inactive)
GI50 (SR): 67.8 µM (inactive)
GI50 (DU-145): > 100 µM (inactive)
GI50 (MDA-N): > 100 µM (inactive)
GI50 (HL-60): 48 µM (inactive)
GI50 (UACC-257): > 100 µM (inactive)

C[n+]1c2ccccc2c2/c(=C\C#N)c3ccccc3n21
GI50 (MOLT-4): 3.54 µM (inactive)
GI50 (PC-3): 2.86 µM (inactive)
GI50 (OVCAR-3): 3.44 µM (inactive)
GI50 (OVCAR-4): 2.79 µM (inactive)
GI50 (TK-10): 1.69 µM (inactive)
GI50 (SF-539): 4.82 µM (inactive)
GI50 (A498): 20 µM (inactive)
GI50 (M14): 4.15 µM (inactive)
GI50 (UO-31): 12.6 µM (inactive)
GI50 (UACC-62): 10.7 µM (inactive)
GI50 (RPMI-8226): 3.28 µM (inactive)
GI50 (BT-549): 3.42 µM (inactive)
GI50 (HCT-116): 3.03 µM (inactive)
GI50 (EKVX): 2.44 µM (inactive)
GI50 (SR): 3.91 µM (inactive)
GI50 (DU-145): 6.75 µM (inactive)
GI50 (MDA-N): 3.7 µM (inactive)
GI50 (HL-60): 3.85 µM (inactive)
GI50 (UACC-257): 3.06 µM (inactive)

CC(=O)c1cc2c(Br)cccc2oc1=O
GI50 (MOLT-4): > 100 µM (inactive)
GI50 (NCI-H522): > 100 µM (inactive)
GI50 (PC-3): > 100 µM (inactive)
GI50 (OVCAR-3): > 100 µM (inactive)
GI50 (OVCAR-4): > 100 µM (inactive)
GI50 (TK-10): > 100 µM (inactive)
GI50 (SF-539): > 100 µM (inactive)
GI50 (A498): > 100 µM (inactive)
GI50 (M14): > 100 µM (inactive)
GI50 (UACC-62): > 100 µM (inactive)
GI50 (RPMI-8226): > 100 µM (inactive)
GI50 (BT-549): 79.1 µM (inactive)
GI50 (HCT-116): 66.7 µM (inactive)
GI50 (EKVX): > 100 µM (inactive)
GI50 (SR): 46.8 µM (inactive)
GI50 (DU-145): > 100 µM (inactive)
GI50 (MDA-N): 52 µM (inactive)
GI50 (HL-60): > 100 µM (inactive)
GI50 (UACC-257): > 100 µM (inactive)

COC(=O)c1ccc(Nc2nc3[nH]cnc3c(=O)[nH]2)cc1
GI50 (MOLT-4): 87.1 µM (inactive)
GI50 (NCI-H522): > 100 µM (inactive)
GI50 (PC-3): > 100 µM (inactive)
GI50 (OVCAR-3): 54.6 µM (inactive)
GI50 (OVCAR-4): > 100 µM (inactive)
GI50 (TK-10): > 100 µM (inactive)
GI50 (SF-539): 67.3 µM (inactive)
GI50 (A498): > 100 µM (inactive)
GI50 (M14): 59.2 µM (inactive)
GI50 (UACC-62): > 100 µM (inactive)
GI50 (RPMI-8226): 47.5 µM (inactive)
GI50 (BT-549): > 100 µM (inactive)
GI50 (HCT-116): > 100 µM (inactive)
GI50 (EKVX): > 100 µM (inactive)
GI50 (SR): 65.9 µM (inactive)
GI50 (DU-145): > 100 µM (inactive)
GI50 (MDA-N): 32.9 µM (inactive)
GI50 (HL-60): > 100 µM (inactive)
GI50 (UACC-257): > 100 µM (inactive)

C=C1C(C2(C)C=CC(=O)OC3(C)COC(=O)CC32)C(OC=O)C(OC(=O)C(O)C(C)CC)C2(C)C(c3ccoc3)CC(OC(C)=O)C12O (stereo not drawn)
GI50 (MOLT-4): > 100 µM (inactive)
GI50 (NCI-H522): > 100 µM (inactive)
GI50 (PC-3): 39.2 µM (inactive)
GI50 (OVCAR-3): > 100 µM (inactive)
GI50 (TK-10): > 100 µM (inactive)
GI50 (SF-539): > 100 µM (inactive)
GI50 (A498): > 100 µM (inactive)
GI50 (M14): 38.8 µM (inactive)
GI50 (UO-31): 67.3 µM (inactive)
GI50 (UACC-62): 35.6 µM (inactive)
GI50 (RPMI-8226): > 100 µM (inactive)
GI50 (BT-549): 54.6 µM (inactive)
GI50 (HCT-116): 49 µM (inactive)
GI50 (EKVX): > 100 µM (inactive)
GI50 (SR): 38.9 µM (inactive)
GI50 (DU-145): > 100 µM (inactive)
GI50 (MDA-N): 37.6 µM (inactive)
GI50 (HL-60): 2.69 µM (inactive)
GI50 (UACC-257): > 100 µM (inactive)

CN(C)CCN1C(=O)N(CCN(C)C)c2c3cc(O)ccc3nc3c([N+](=O)[O-])ccc1c23
GI50 (NCI-H522): 16.6 µM (inactive)
GI50 (PC-3): 8.63 µM (inactive)
GI50 (OVCAR-4): 9.66 µM (inactive)
GI50 (TK-10): 10.6 µM (inactive)
GI50 (A498): 15.7 µM (inactive)
GI50 (UO-31): 16.7 µM (inactive)
GI50 (UACC-62): 15.9 µM (inactive)
GI50 (RPMI-8226): 14.2 µM (inactive)
GI50 (BT-549): 19.8 µM (inactive)
GI50 (HCT-116): 5.58 µM (inactive)
GI50 (SR): 0.245 µM (active)
GI50 (DU-145): 10.7 µM (inactive)
GI50 (MDA-N): 13 µM (inactive)
GI50 (UACC-257): 15.3 µM (inactive)

CC1(O)CC(C(F)(F)F)(C(F)(F)F)OC1=O (stereo not drawn)
GI50 (MOLT-4): > 10 µM (inactive)
GI50 (NCI-H522): > 10 µM (inactive)
GI50 (PC-3): > 10 µM (inactive)
GI50 (OVCAR-3): > 10 µM (inactive)
GI50 (OVCAR-4): > 10 µM (inactive)
GI50 (TK-10): > 10 µM (inactive)
GI50 (SF-539): > 10 µM (inactive)
GI50 (A498): > 10 µM (inactive)
GI50 (M14): > 10 µM (inactive)
GI50 (UO-31): > 10 µM (inactive)
GI50 (UACC-62): > 10 µM (inactive)
GI50 (RPMI-8226): > 10 µM (inactive)
GI50 (BT-549): > 10 µM (inactive)
GI50 (HCT-116): > 10 µM (inactive)
GI50 (EKVX): > 10 µM (inactive)
GI50 (SR): > 10 µM (inactive)
GI50 (DU-145): > 10 µM (inactive)
GI50 (MDA-N): > 10 µM (inactive)
GI50 (UACC-257): > 10 µM (inactive)

Nc1nc(-[n+]2ccc(-c3ccncc3)cc2)nc(Cl)c1Cl
GI50 (MOLT-4): 18.9 µM (inactive)
GI50 (PC-3): 54.3 µM (inactive)
GI50 (OVCAR-3): 17.3 µM (inactive)
GI50 (OVCAR-4): > 100 µM (inactive)
GI50 (TK-10): 26.3 µM (inactive)
GI50 (SF-539): 26.8 µM (inactive)
GI50 (A498): > 100 µM (inactive)
GI50 (M14): > 100 µM (inactive)
GI50 (UO-31): 32.9 µM (inactive)
GI50 (UACC-62): > 100 µM (inactive)
GI50 (RPMI-8226): 17.2 µM (inactive)
GI50 (BT-549): > 100 µM (inactive)
GI50 (HCT-116): > 100 µM (inactive)
GI50 (EKVX): 26.6 µM (inactive)
GI50 (SR): 20 µM (inactive)
GI50 (DU-145): > 100 µM (inactive)
GI50 (MDA-N): > 100 µM (inactive)
GI50 (HL-60): 18.6 µM (inactive)
GI50 (UACC-257): 20.4 µM (inactive)

C=CC1ON(Cc2ccccc2)CCc2cc(OC)c(OC)cc21 (stereo not drawn)
GI50 (MOLT-4): 34.7 µM (inactive)
GI50 (NCI-H522): 41.5 µM (inactive)
GI50 (PC-3): 48.9 µM (inactive)
GI50 (OVCAR-3): 35.4 µM (inactive)
GI50 (TK-10): > 100 µM (inactive)
GI50 (SF-539): 83.4 µM (inactive)
GI50 (A498): 15.2 µM (inactive)
GI50 (M14): 49.7 µM (inactive)
GI50 (UO-31): 25.5 µM (inactive)
GI50 (UACC-62): 56.1 µM (inactive)
GI50 (RPMI-8226): 30.3 µM (inactive)
GI50 (BT-549): 28.1 µM (inactive)
GI50 (HCT-116): 45.2 µM (inactive)
GI50 (EKVX): 63.4 µM (inactive)
GI50 (SR): 25.7 µM (inactive)
GI50 (DU-145): > 100 µM (inactive)
GI50 (MDA-N): 29 µM (inactive)
GI50 (HL-60): 26.1 µM (inactive)
GI50 (UACC-257): 52.6 µM (inactive)

N[C@@H]1CCN(c2c(F)cc3c(=O)c(C(=O)O)cn4c3c2Oc2cc3c(ccc5ccccc53)cc2-4)C1
GI50 (MOLT-4): 0.515 µM (active)
GI50 (NCI-H522): 3.85 µM (inactive)
GI50 (PC-3): 2.34 µM (inactive)
GI50 (OVCAR-3): 5.73 µM (inactive)
GI50 (OVCAR-4): 4.36 µM (inactive)
GI50 (TK-10): 1.45 µM (inactive)
GI50 (SF-539): 3.37 µM (inactive)
GI50 (A498): 4.83 µM (inactive)
GI50 (M14): 8.79 µM (inactive)
GI50 (UO-31): 5.2 µM (inactive)
GI50 (UACC-62): 7.6 µM (inactive)
GI50 (RPMI-8226): 4.3 µM (inactive)
GI50 (BT-549): 4.03 µM (inactive)
GI50 (HCT-116): 1.64 µM (inactive)
GI50 (SR): 0.659 µM (active)
GI50 (DU-145): 3.28 µM (inactive)
GI50 (MDA-N): 3.01 µM (inactive)
GI50 (HL-60): 7.14 µM (inactive)
GI50 (UACC-257): 0.78 µM (active)
